Measurements from US10201175B2, “N-acylated 1-aminocycloalkyl carboxylic acids as food flavouring compounds” (Givaudan S.A., priority 2012, dated 2019).

Columns and labels:
[1] = Expert taster evaluation, test in mayonnaise; conditions: 0.5 ppm in low fat mayonnaise (27% fat)
Experimental: (§1) Samples were prepared and evaluated by expert tasters. Tasters were asked to describe the samples focusing on authentic taste, mouthfeel, fullness, salivation, salty-ness, umami, sweetness, juiciness, richness, long lastingness and fattiness.
Fat levels between 10-80%
Low fat Mayonnaise (27% Fat)

[2] = Expert taster evaluation, test in cheese sauce; conditions: 0.5 ppm in cheese sauce, 5% fat, 1.6% salt
Experimental: as §1
Cheese sauce: 5% fat 1.6% salt

[3] = Expert taster evaluation, test in dressings; conditions: 0.5 ppm in low fat salad dressing (13.6% fat)
Experimental: as §1
Low fat salad dressing (13.6% Fat)

[4] = Expert taster evaluation, test in soups and bouillons; conditions: 0.7% salt, 0.5% fat
Experimental: as §1
Test in Soups and Bouillons
Standard Chicken bouillon base

[5] = Expert taster evaluation, test in cheese (spreadable cheese ERU); conditions: 0.5 ppm in spreadable cheese ERU
Experimental: as §1

[6] = Expert taster evaluation, test in fish sauce; conditions: 0.5 ppm in fish sauce; salt level in application 0.3-1.0%
Experimental: as §1
(§2) Salt level pure product between 5-40%
(§3) Salt level in application 0.3-1.0%

[7] = Expert taster evaluation, test in jus and fonds; conditions: 40 ppb in beef jus
Experimental: as §1

[8] = Expert taster evaluation, test on Kikkoman soy sauce low salt; conditions: 0.5 ppm in Kikkoman soy sauce low salt; salt level in application 0.3-1.0%
Experimental: as §1
Test on Kikkoman soy sauce low salt
as §2, §3

## CCCCCCCC/C=C\CCCCCCCC(=O)NC1(C(=O)O)CC1 [C18:1-ACCA, N-oleoyl 1-amino-cyclopropyl carboxylic acid]
[1]
  taste description by expert tasters: Nice balanced, full mouthfeel, increased eggyness
[2]
  taste description by expert tasters: Strong umami, cheese bite, expanding
[3]
  taste description by expert tasters: Increased mouthfeel body less acidic
[4]; 0.2 ppm in standard chicken bouillon base
  taste description by expert tasters: Saltier, Stronger and more umami
[4]; 0.5 ppm in standard chicken bouillon base
  taste description by expert tasters: More body and fatty notes, salivating and good aftertaste
[5]
  taste description by expert tasters: Strong umami, lingering cheese bite
[6]
  taste description by expert tasters: Strong saltiness lingering, strong body mouthfeel
[7]
  taste description by expert tasters: more salty, fatty, total profile is enhanced
[8]
  taste description by expert tasters: Strong upfront saltiness lingering, very strong saltiness
